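Method: 48-hour compound exposure of cells in 96-well plates, five concentrations, linear interpolation of endpoints. Here, GI50 denotes the concentration required for 50% inhibition of growth. Definition used: TGI = concentration required for complete inhibition of growth.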
Columns and labels:
Experiment in all cases: NCI anticancer screen, dose series, 48 h
786-0 renal = tested on: 786-0 renal
A498 renal = tested on: A498 renal
A549 NSCLC = tested on: A549 NSCLC
ACHN renal = tested on: ACHN renal
BT-549 breast = tested on: BT-549 breast
CAKI-1 renal = tested on: CAKI-1 renal
CCRF-CEM leukemia = tested on: CCRF-CEM leukemia
COLO 205 colon = tested on: COLO 205 colon
EKVX NSCLC = tested on: EKVX NSCLC
HCT-116 colon = tested on: HCT-116 colon
HCT-15 colon = tested on: HCT-15 colon
HL-60(TB) leukemia = tested on: HL-60(TB) leukemia
HOP-62 NSCLC = tested on: HOP-62 NSCLC
HOP-92 NSCLC = tested on: HOP-92 NSCLC
HS 578T breast = tested on: HS 578T breast
HT29 colon = tested on: HT29 colon
K-562 leukemia = tested on: K-562 leukemia
KM12 colon = tested on: KM12 colon
LOX IMVI melanoma = tested on: LOX IMVI melanoma
M14 melanoma = tested on: M14 melanoma
MALME-3M melanoma = tested on: MALME-3M melanoma
MCF7 breast = tested on: MCF7 breast
MDA-MB-231 breast = tested on: MDA-MB-231 breast
MDA-MB-435 = tested on: MDA-MB-435
MDA-N = tested on: MDA-N
MOLT-4 leukemia = tested on: MOLT-4 leukemia
NCI-H226 lung = tested on: NCI-H226 lung
NCI-H23 lung = tested on: NCI-H23 lung
NCI-H522 lung = tested on: NCI-H522 lung
NCI/ADR-RES ovarian = tested on: NCI/ADR-RES ovarian
OVCAR-3 ovarian = tested on: OVCAR-3 ovarian
OVCAR-4 ovarian = tested on: OVCAR-4 ovarian
OVCAR-5 ovarian = tested on: OVCAR-5 ovarian
OVCAR-8 ovarian = tested on: OVCAR-8 ovarian
PC-3 prostate = tested on: PC-3 prostate
RPMI-8226 leukemia = tested on: RPMI-8226 leukemia
RXF 393 renal = tested on: RXF 393 renal
SF-268 CNS = tested on: SF-268 CNS
SF-295 CNS = tested on: SF-295 CNS
SF-539 CNS = tested on: SF-539 CNS
SK-MEL-2 melanoma = tested on: SK-MEL-2 melanoma
SK-MEL-5 melanoma = tested on: SK-MEL-5 melanoma
SK-OV-3 ovarian = tested on: SK-OV-3 ovarian
SN12C renal = tested on: SN12C renal
SNB-19 CNS = tested on: SNB-19 CNS
SNB-75 CNS = tested on: SNB-75 CNS
SR leukemia = tested on: SR leukemia
SW-620 colon = tested on: SW-620 colon
TK-10 renal = tested on: TK-10 renal
U251 CNS = tested on: U251 CNS
UACC-257 melanoma = tested on: UACC-257 melanoma
UACC-62 melanoma = tested on: UACC-62 melanoma
UO-31 renal = tested on: UO-31 renal
DU-145 prostate = tested on: DU-145 prostate
HCC-2998 colon = tested on: HCC-2998 colon
IGROV1 ovarian = tested on: IGROV1 ovarian
NCI-H460 lung = tested on: NCI-H460 lung
SK-MEL-28 melanoma = tested on: SK-MEL-28 melanoma
T-47D breast = tested on: T-47D breast

Cc1nnc([C@@]2(C)CC[C@H]3[C@@H](CC=C4C[C@@H](O)CC[C@@]43C)[C@@H]2CC#N)o1
TGI (786-0 renal): > 100 µM
TGI (A498 renal): > 100 µM
TGI (A549 NSCLC): > 100 µM
TGI (ACHN renal): > 100 µM
TGI (BT-549 breast): > 100 µM
TGI (CAKI-1 renal): > 100 µM
TGI (CCRF-CEM leukemia): > 100 µM
TGI (COLO 205 colon): > 100 µM
TGI (EKVX NSCLC): > 100 µM
TGI (HCT-116 colon): > 100 µM
TGI (HCT-15 colon): > 100 µM
TGI (HL-60(TB) leukemia): > 100 µM
TGI (HOP-62 NSCLC): > 100 µM
TGI (HOP-92 NSCLC): > 100 µM
TGI (HS 578T breast): > 100 µM
TGI (HT29 colon): > 100 µM
TGI (K-562 leukemia): > 100 µM
TGI (KM12 colon): > 100 µM
TGI (LOX IMVI melanoma): > 100 µM
TGI (M14 melanoma): > 100 µM
TGI (MALME-3M melanoma): > 100 µM
TGI (MCF7 breast): > 100 µM
TGI (MDA-MB-231 breast): > 100 µM
TGI (MDA-MB-435): > 100 µM
TGI (MDA-N): > 100 µM
TGI (MOLT-4 leukemia): > 100 µM
TGI (NCI-H226 lung): > 100 µM
TGI (NCI-H23 lung): > 100 µM
TGI (NCI-H522 lung): > 100 µM
TGI (NCI/ADR-RES ovarian): > 100 µM
TGI (OVCAR-3 ovarian): > 100 µM
TGI (OVCAR-4 ovarian): > 100 µM
TGI (OVCAR-5 ovarian): > 100 µM
TGI (OVCAR-8 ovarian): > 100 µM
TGI (PC-3 prostate): > 100 µM
TGI (RPMI-8226 leukemia): > 100 µM
TGI (RXF 393 renal): > 100 µM
TGI (SF-268 CNS): > 100 µM
TGI (SF-295 CNS): > 100 µM
TGI (SF-539 CNS): > 100 µM
TGI (SK-MEL-2 melanoma): > 100 µM
TGI (SK-MEL-5 melanoma): > 100 µM
TGI (SK-OV-3 ovarian): > 100 µM
TGI (SN12C renal): > 100 µM
TGI (SNB-19 CNS): > 100 µM
TGI (SNB-75 CNS): > 100 µM
TGI (SR leukemia): > 100 µM
TGI (SW-620 colon): > 100 µM
TGI (TK-10 renal): > 100 µM
TGI (U251 CNS): > 100 µM
TGI (UACC-257 melanoma): > 100 µM
TGI (UACC-62 melanoma): > 100 µM
TGI (UO-31 renal): > 100 µM

Cc1[nH]c(N=Nc2ccccc2)nc1N=Nc1ccccc1
GI50 (786-0 renal): 2750 nM
TGI (786-0 renal): 10.2 µM
GI50 (A498 renal): 5.1 µM
TGI (A498 renal): 25.6 µM
GI50 (A549 NSCLC): 2860 nM
TGI (A549 NSCLC): 12 µM
GI50 (ACHN renal): 2150 nM
TGI (ACHN renal): 7.89 µM
GI50 (BT-549 breast): 2080 nM
TGI (BT-549 breast): 8.11 µM
GI50 (CAKI-1 renal): 1040 nM
TGI (CAKI-1 renal): 3.48 µM
GI50 (CCRF-CEM leukemia): 2190 nM
TGI (CCRF-CEM leukemia): > 25.3 µM
GI50 (COLO 205 colon): 2960 nM
TGI (COLO 205 colon): 13.1 µM
GI50 (DU-145 prostate): 3.17 µM
TGI (DU-145 prostate): > 34.9 µM
GI50 (EKVX NSCLC): 3.05 µM
TGI (EKVX NSCLC): 29.9 µM
GI50 (HCC-2998 colon): 4.2 µM
TGI (HCC-2998 colon): 29.6 µM
GI50 (HCT-116 colon): 3.12 µM
TGI (HCT-116 colon): 27.6 µM
GI50 (HCT-15 colon): 1400 nM
TGI (HCT-15 colon): 22.1 µM
GI50 (HL-60(TB) leukemia): 2560 nM
TGI (HL-60(TB) leukemia): > 23.6 µM
GI50 (HOP-62 NSCLC): 4.09 µM
TGI (HOP-62 NSCLC): 17.1 µM
GI50 (HOP-92 NSCLC): 2340 nM
TGI (HOP-92 NSCLC): 20.3 µM
GI50 (HS 578T breast): 12.8 µM
TGI (HS 578T breast): > 34.8 µM
GI50 (HT29 colon): 4.57 µM
TGI (HT29 colon): 20.8 µM
GI50 (IGROV1 ovarian): 1600 nM
TGI (IGROV1 ovarian): 5.15 µM
GI50 (K-562 leukemia): 3.55 µM
TGI (K-562 leukemia): > 100 µM
GI50 (KM12 colon): 3.98 µM
TGI (KM12 colon): > 93.2 µM
GI50 (LOX IMVI melanoma): 2720 nM
TGI (LOX IMVI melanoma): 20.9 µM
GI50 (M14 melanoma): 2000 nM
TGI (M14 melanoma): 4.49 µM
GI50 (MALME-3M melanoma): 2270 nM
TGI (MALME-3M melanoma): 8.06 µM
GI50 (MCF7 breast): 2730 nM
TGI (MCF7 breast): 15.3 µM
GI50 (MDA-MB-231 breast): 5.25 µM
TGI (MDA-MB-231 breast): > 45.4 µM
GI50 (MDA-MB-435): 3.35 µM
TGI (MDA-MB-435): 17.9 µM
GI50 (MOLT-4 leukemia): 2320 nM
TGI (MOLT-4 leukemia): > 41.7 µM
GI50 (NCI-H226 lung): 2700 nM
TGI (NCI-H226 lung): 12.4 µM
GI50 (NCI-H23 lung): 3.28 µM
TGI (NCI-H23 lung): > 36.3 µM
GI50 (NCI-H460 lung): 2370 nM
TGI (NCI-H460 lung): 8.09 µM
GI50 (NCI-H522 lung): 2690 nM
TGI (NCI-H522 lung): > 34.5 µM
GI50 (NCI/ADR-RES ovarian): 2780 nM
TGI (NCI/ADR-RES ovarian): 27.3 µM
GI50 (OVCAR-3 ovarian): 2600 nM
TGI (OVCAR-3 ovarian): 16.1 µM
GI50 (OVCAR-4 ovarian): 3.06 µM
TGI (OVCAR-4 ovarian): 55.4 µM
GI50 (OVCAR-5 ovarian): 6.62 µM
TGI (OVCAR-5 ovarian): > 82.2 µM
GI50 (OVCAR-8 ovarian): 3.2 µM
TGI (OVCAR-8 ovarian): 53.1 µM
GI50 (PC-3 prostate): 4.99 µM
TGI (PC-3 prostate): > 51.6 µM
GI50 (RPMI-8226 leukemia): 1170 nM
TGI (RPMI-8226 leukemia): 8.38 µM
GI50 (RXF 393 renal): 552 nM
TGI (RXF 393 renal): 3.43 µM
GI50 (SF-268 CNS): 2450 nM
TGI (SF-268 CNS): 11.5 µM
GI50 (SF-295 CNS): 1930 nM
TGI (SF-295 CNS): 11.6 µM
GI50 (SF-539 CNS): 2600 nM
TGI (SF-539 CNS): 6.93 µM
GI50 (SK-MEL-2 melanoma): 3.59 µM
TGI (SK-MEL-2 melanoma): 19.1 µM
GI50 (SK-MEL-28 melanoma): 4.5 µM
TGI (SK-MEL-28 melanoma): > 41 µM
GI50 (SK-MEL-5 melanoma): 2410 nM
TGI (SK-MEL-5 melanoma): 7.83 µM
GI50 (SK-OV-3 ovarian): 3.14 µM
TGI (SK-OV-3 ovarian): > 32.4 µM
GI50 (SN12C renal): 3.51 µM
TGI (SN12C renal): 22.4 µM
GI50 (SNB-19 CNS): 3.63 µM
TGI (SNB-19 CNS): > 87.7 µM
GI50 (SNB-75 CNS): 1660 nM
TGI (SNB-75 CNS): 12.5 µM
GI50 (SR leukemia): 418 nM
GI50 (SW-620 colon): 4.7 µM
TGI (SW-620 colon): > 56.7 µM
GI50 (T-47D breast): 2770 nM
TGI (T-47D breast): > 46.8 µM
GI50 (TK-10 renal): 1850 nM
TGI (TK-10 renal): > 32.9 µM
GI50 (U251 CNS): 2830 nM
TGI (U251 CNS): > 37.5 µM
GI50 (UACC-257 melanoma): 2260 nM
TGI (UACC-257 melanoma): 5.89 µM
GI50 (UACC-62 melanoma): 1830 nM
TGI (UACC-62 melanoma): 4.34 µM
GI50 (UO-31 renal): 1340 nM
TGI (UO-31 renal): 13 µM
